Test results taken from ChEMBL document CHEMBL4806963, “Antagonistic peptides for frizzled-1 and frizzled-2” (2013).
The source made the active and inactive calls. No cut-off for these calls is given here. Where a SMILES comes first, the peptide text is derived from it.

Legend:
[1] = target: Frizzled-1 (Rattus norvegicus) (UniProt Q08463); assay: Agonist activity at rat frizzled-1 expressed in human HEK293superTOP flash cells by luciferase reporter gene assay; type: cell-based; conditions: HEK293
[2] = target: Frizzled-2 (Homo sapiens) (UniProt Q14332); assay: Antagonist activity at frizzled-2 (unknown origin) expressed in rat C-FIT cells assessed as inhibition of Wnt3a-stimulated blockade of migration at 10 nM incubated for 48 hrs and measured for 24 hrs following the scratch by scratch wound healing assay; type: functional, cell-based; conditions: filed as antagonist, time 72.0 hrs
[3] = target: Frizzled-1 (Rattus norvegicus) (UniProt Q08463); assay: Antagonist activity at rat frizzled-1 expressed in rat C-FIT cells assessed as inhibition of Wnt3a-stimulated blockade of migration at 10 nM incubated for 48 hrs and measured for 24 hrs following the scratch by scratch wound healing assay; type: cell-based; conditions: filed as antagonist, time 72.0 hrs
[4] = target: Frizzled-2 (Homo sapiens) (UniProt Q14332); assay: Antagonist activity at Wnt3a-stimulated frizzled-2 (unknown origin) expressed in human HEK293superTOP flash cells incubated for 24 hrs by luciferase reporter gene assay; type: functional, cell-based; conditions: HEK293, filed as antagonist
Mus musculus [5] = assay: Cardioprotective activity against myocardial infarction Swiss mouse model assessed as increase in alpha-SMA gene expression in heart at 6 ug/kg/day, sc via osmotic pumps for 5 weeks by qPCR analysis; type: functional, organism-based; conditions: dose 6.0 µg/kg/day
[6] = target: Frizzled-1 (Rattus norvegicus) (UniProt Q08463); assay: Antagonist activity at Wnt3a-stimulated rat frizzled-1 expressed in African green monkey COS7 cells incubated for 24 hrs by luciferase reporter gene assay relative to control; type: cell-based; conditions: filed as antagonist, concentration not given here
[7] = target: Frizzled-1 (Rattus norvegicus) (UniProt Q08463); assay: Antagonist activity at Wnt3a-stimulated rat frizzled-1 expressed in human HEK293superTOP flash cells at 10 nM incubated for 24 hrs by luciferase reporter gene assay relative to control; type: cell-based; conditions: HEK293, filed as antagonist
Mus musculus [8] = assay: Cardioprotective activity against myocardial infarction Swiss mouse model assessed as ventricular dilation at 6 ug/kg/day, sc via osmotic pumps for 5 weeks by macroscopic analysis; type: functional, organism-based; conditions: dose 6.0 µg/kg/day
[9] = target: Frizzled-2 (Homo sapiens) (UniProt Q14332); assay: Antagonist activity at frizzled-2 (unknown origin) expressed in rat C-FIT cells assessed as inhibition of Wnt5a-stimulated cell differentiation changes by measuring alpha-smooth muscle actin gene expression at 10 nM by quantitative RT-PCR analysis; type: functional, cell-based; conditions: filed as antagonist
Mus musculus [10] = assay: Cardioprotective activity against myocardial infarction Swiss mouse model assessed as reduction in infarct area in heart at 6 ug/kg/day, sc via osmotic pumps for 2 to 5 weeks by immunohistochemical staining analysis; type: functional, organism-based; conditions: dose 6.0 µg/kg/day, time 2-5 weeks
Mus musculus [11] = assay: Cardioprotective activity against myocardial infarction Swiss mouse model assessed as increase in myofibroblast number at 6 ug/kg/day, sc via osmotic pumps for 5 weeks by immunohistochemical staining analysis; type: functional, organism-based; conditions: dose 6.0 µg/kg/day
[12] = target: Frizzled-1 (Mus musculus) (UniProt O70421); assay: Antagonist activity at Wnt3a-stimulaed mouse frizzled-1 expressed in human HEK293superTOP flash cells incubated for 24 hrs by luciferase reporter gene assay; type: cell-based; conditions: HEK293, filed as antagonist
[13] = target: Frizzled-2 (Rattus norvegicus) (UniProt Q08464); assay: Agonist activity at rat frizzled-2 expressed in human HEK293superTOP flash cells by luciferase reporter gene assay; type: cell-based; conditions: HEK293
Mus musculus [14] = assay: Cardioprotective activity against myocardial infarction Swiss mouse model assessed as increase in infarct area thickness in heart at 6 ug/kg/day, sc via osmotic pumps for 2 to 5 weeks by immunohistochemical staining analysis; type: functional, organism-based; conditions: dose 6.0 µg/kg/day, time 2-5 weeks
[15] = target: Frizzled-1 (Homo sapiens) (UniProt Q9UP38); assay: Antagonist activity at frizzled-1 (unknown origin) expressed in rat C-FIT cells assessed as inhibition of Wnt3a-stimulated cell differentiation changes by measuring alpha-smooth muscle actin gene expression at 10 nM by quantitative RT-PCR analysis; type: functional, cell-based; conditions: filed as antagonist
[16] = target: Frizzled-5 (Homo sapiens) (UniProt Q13467); assay: Antagonist activity at Wnt3a-stimulaed human frizzled-5 expressed in human HEK293superTOP flash cells at 10 nM incubated for 24 hrs by luciferase reporter gene assay; type: functional, cell-based; conditions: HEK293
[17] = target: Frizzled-1 (Rattus norvegicus) (UniProt Q08463); assay: Agonist activity at rat frizzled-1 expressed in African green monkey COS7 cells by luciferase reporter gene assay; type: cell-based
[18] = target: Frizzled-1 (Rattus norvegicus) (UniProt Q08463); assay: Agonist activity at rat frizzled-1 expressed in CHO cells by luciferase reporter gene assay; type: cell-based
Mus musculus [19] = assay: Cardioprotective activity against myocardial infarction Swiss mouse model assessed as reduction in wet lung weight at 6 ug/kg/day, sc via osmotic pumps for 5 weeks; type: functional, organism-based; conditions: dose 6.0 µg/kg/day
[20] = target: Frizzled-1 (Homo sapiens) (UniProt Q9UP38); assay: Antagonist activity at Wnt3a-stimulaed human frizzled-1 expressed in human HEK293superTOP flash cells incubated for 24 hrs by luciferase reporter gene assay; type: functional, cell-based; conditions: HEK293, filed as antagonist
Mus musculus [21] = assay: Cardioprotective activity against myocardial infarction Swiss mouse model assessed as increase in alpha-SMA protein expression in heart at 6 ug/kg/day, sc via osmotic pumps for 5 weeks by western blot analysis; type: functional, organism-based; conditions: dose 6.0 µg/kg/day
[22] = target: T1, Frizzled-4 (Homo sapiens) (UniProt Q9ULV1); assay: Antagonist activity at Wnt3a-stimulaed human frizzled-4 expressed in human HEK293superTOP flash cells at 10 nM incubated for 24 hrs by luciferase reporter gene assay; type: functional, cell-based; conditions: HEK293
T1 sequence (whole entry): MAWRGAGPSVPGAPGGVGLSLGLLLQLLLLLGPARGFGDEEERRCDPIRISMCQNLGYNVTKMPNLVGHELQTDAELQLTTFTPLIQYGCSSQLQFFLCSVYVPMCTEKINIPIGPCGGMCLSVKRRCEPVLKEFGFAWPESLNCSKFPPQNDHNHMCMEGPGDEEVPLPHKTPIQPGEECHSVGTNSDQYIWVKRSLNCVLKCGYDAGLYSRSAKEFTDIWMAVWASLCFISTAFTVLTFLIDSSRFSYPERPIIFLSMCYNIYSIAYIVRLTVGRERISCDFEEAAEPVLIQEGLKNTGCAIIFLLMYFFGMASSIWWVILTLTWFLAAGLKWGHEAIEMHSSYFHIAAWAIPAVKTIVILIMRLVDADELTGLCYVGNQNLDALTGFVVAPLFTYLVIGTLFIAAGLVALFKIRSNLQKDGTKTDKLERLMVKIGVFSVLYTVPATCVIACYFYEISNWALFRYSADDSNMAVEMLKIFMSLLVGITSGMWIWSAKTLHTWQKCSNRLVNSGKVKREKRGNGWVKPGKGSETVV

[23] = target: Frizzled-2 (Rattus norvegicus) (UniProt Q08464); assay: Agonist activity at rat frizzled-2 expressed in African green monkey COS7 cells by luciferase reporter gene assay; type: cell-based
[24] = target: Frizzled-5 (Homo sapiens) (UniProt Q13467); assay: Antagonist activity at Wnt3a-stimulaed frizzled-5 (unknown origin) expressed in human HEK293superTOP flash cells incubated for 24 hrs by luciferase reporter gene assay; type: functional, cell-based; conditions: HEK293
Mus musculus [25] = assay: Cardioprotective activity against myocardial infarction Swiss mouse model assessed as increase in amount of blood vessels in heart at 6 ug/kg/day, sc via osmotic pumps for 5 weeks by immunohistochemical staining analysis; type: functional, organism-based; conditions: dose 6.0 µg/kg/day
[26] = target: Frizzled-1 (Homo sapiens) (UniProt Q9UP38); assay: Antagonist activity at frizzled-1 (unknown origin) expressed in rat C-FIT cells assessed as inhibition of Wnt5a-stimulated cell differentiation changes by measuring alpha-smooth muscle actin gene expression at 10 nM by quantitative RT-PCR analysis; type: functional, cell-based; conditions: filed as antagonist
[27] = target: Frizzled-1 (Rattus norvegicus) (UniProt Q08463); assay: Antagonist activity at Wnt3a-stimulated rat frizzled-1 expressed in CHO cells incubated for 24 hrs by luciferase reporter gene assay relative to control; type: cell-based; conditions: filed as antagonist, concentration not given here
[28] = target: Frizzled-1 (Homo sapiens) (UniProt Q9UP38); assay: Antagonist activity at frizzled-1 (unknown origin) expressed in rat C-FIT cells assessed as inhibition of Wnt3a-stimulated blockade of migration at 10 nM incubated for 48 hrs and measured for 24 hrs following the scratch by scratch wound healing assay; type: functional, cell-based; conditions: filed as antagonist, time 72.0 hrs

Chain of Frizzled-1 (Rattus norvegicus) (Q08463 whole entry): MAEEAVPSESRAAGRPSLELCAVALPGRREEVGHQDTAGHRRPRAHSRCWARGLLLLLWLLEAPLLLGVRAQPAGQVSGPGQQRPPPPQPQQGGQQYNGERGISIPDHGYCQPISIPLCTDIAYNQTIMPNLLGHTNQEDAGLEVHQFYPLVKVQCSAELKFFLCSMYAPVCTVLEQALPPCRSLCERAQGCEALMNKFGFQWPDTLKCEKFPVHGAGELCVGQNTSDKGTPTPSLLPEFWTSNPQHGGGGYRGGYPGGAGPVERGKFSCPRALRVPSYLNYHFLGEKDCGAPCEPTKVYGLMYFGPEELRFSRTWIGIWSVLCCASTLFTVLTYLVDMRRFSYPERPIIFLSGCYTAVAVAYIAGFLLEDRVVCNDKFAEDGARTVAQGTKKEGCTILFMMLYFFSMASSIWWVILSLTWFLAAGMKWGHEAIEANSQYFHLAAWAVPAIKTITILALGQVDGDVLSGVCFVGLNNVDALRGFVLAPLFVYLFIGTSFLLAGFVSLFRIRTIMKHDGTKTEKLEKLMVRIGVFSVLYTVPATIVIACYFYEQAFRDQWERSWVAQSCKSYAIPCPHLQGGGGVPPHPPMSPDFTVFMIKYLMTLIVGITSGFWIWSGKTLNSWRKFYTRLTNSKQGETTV
Chain of Frizzled-1 (Homo sapiens) (Q9UP38 70-647 limits assumed): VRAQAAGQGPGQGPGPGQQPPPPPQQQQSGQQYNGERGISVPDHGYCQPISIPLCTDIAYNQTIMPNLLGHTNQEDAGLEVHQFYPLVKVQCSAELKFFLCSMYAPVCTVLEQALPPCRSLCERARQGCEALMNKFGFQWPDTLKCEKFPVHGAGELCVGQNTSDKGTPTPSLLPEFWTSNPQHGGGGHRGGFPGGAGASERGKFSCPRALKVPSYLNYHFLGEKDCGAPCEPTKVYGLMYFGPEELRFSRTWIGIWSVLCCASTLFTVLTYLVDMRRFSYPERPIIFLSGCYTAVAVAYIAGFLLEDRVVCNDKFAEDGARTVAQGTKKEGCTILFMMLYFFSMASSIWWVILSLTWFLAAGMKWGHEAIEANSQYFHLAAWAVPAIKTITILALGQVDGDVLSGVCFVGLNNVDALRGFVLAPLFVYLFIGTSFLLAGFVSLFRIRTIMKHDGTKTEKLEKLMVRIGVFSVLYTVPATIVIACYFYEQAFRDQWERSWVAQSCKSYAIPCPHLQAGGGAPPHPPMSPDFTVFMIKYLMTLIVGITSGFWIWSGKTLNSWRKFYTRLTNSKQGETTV
Chain of Frizzled-2 (Homo sapiens) (Q14332 24-565 limits assumed): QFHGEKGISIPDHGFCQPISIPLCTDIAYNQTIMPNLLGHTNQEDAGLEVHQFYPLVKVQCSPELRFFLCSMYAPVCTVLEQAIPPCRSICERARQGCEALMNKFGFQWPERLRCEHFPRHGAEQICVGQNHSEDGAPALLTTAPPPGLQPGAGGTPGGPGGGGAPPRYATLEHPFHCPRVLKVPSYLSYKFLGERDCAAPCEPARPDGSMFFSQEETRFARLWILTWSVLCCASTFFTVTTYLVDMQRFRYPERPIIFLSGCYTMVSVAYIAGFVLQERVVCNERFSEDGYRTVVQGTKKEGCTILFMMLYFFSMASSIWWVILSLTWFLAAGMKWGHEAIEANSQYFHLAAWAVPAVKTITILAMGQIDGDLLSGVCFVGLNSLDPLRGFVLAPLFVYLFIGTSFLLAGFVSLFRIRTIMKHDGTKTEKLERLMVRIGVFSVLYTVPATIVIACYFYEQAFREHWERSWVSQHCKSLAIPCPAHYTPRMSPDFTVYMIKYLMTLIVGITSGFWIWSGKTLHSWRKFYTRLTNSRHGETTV
Chain of Frizzled-2 (Rattus norvegicus) (Q08464 29-570 limits assumed): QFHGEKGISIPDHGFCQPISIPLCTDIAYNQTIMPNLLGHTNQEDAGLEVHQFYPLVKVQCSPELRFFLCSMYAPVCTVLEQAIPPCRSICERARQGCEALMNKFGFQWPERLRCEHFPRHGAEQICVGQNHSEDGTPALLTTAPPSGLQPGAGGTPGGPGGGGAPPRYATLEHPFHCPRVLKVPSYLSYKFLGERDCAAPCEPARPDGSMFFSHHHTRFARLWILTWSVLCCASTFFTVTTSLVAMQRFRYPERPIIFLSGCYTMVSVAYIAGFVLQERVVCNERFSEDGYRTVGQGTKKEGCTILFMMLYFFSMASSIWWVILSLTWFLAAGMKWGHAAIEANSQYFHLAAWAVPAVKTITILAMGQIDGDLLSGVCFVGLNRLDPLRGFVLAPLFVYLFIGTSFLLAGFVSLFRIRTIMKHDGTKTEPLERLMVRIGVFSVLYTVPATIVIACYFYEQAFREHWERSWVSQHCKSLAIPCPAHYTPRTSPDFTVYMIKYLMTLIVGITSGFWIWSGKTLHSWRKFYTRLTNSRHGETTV
Chain of Frizzled-5 (Homo sapiens) (Q13467 whole entry): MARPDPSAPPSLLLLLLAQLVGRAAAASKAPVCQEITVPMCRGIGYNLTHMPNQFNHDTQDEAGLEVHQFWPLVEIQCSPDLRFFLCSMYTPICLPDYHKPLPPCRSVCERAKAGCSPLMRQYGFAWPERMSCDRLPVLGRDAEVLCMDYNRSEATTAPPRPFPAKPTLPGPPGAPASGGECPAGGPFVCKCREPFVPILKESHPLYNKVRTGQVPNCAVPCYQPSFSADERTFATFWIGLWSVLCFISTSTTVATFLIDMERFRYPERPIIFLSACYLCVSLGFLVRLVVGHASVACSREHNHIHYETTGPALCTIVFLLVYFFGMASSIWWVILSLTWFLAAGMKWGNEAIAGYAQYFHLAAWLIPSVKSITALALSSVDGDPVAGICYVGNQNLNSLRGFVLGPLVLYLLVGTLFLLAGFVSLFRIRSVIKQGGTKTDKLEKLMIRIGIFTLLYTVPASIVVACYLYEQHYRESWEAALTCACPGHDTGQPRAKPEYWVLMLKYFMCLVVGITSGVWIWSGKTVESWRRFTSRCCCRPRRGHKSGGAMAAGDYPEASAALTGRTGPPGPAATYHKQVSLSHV
Chain of Frizzled-1 (Mus musculus) (O70421 whole entry, looked up): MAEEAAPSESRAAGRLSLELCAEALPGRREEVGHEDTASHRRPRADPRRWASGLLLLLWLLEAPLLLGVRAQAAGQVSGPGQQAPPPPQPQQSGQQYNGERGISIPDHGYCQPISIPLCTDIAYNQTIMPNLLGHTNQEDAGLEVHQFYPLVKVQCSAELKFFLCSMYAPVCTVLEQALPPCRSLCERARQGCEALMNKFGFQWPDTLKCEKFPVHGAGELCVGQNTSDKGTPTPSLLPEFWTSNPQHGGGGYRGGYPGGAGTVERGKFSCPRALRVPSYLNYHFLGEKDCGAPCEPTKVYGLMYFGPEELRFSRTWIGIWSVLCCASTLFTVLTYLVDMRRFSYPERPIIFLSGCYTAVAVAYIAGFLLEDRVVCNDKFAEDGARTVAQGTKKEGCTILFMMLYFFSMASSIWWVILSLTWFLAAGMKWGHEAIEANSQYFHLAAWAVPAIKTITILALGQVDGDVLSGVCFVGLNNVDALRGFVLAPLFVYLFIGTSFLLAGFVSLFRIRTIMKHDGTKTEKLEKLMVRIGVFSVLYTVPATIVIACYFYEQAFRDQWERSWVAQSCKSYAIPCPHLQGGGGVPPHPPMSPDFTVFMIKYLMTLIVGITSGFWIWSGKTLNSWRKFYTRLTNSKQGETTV

Activity [1]: inactive
inhibition [2]: 100%
inhibition [3]: 100%
inhibition [4]: Dose-Dependent Effect
inhibition [6]: 100%
inhibition [7]: 100%
inhibition [9]: 100%
inhibition [12]: Active
Activity [13]: inactive
inhibition [15]: 100%
inhibition [16]: inactive
Activity [17]: inactive
Activity [18]: inactive
inhibition [20]: Active
inhibition [22]: inactive
Activity [23]: inactive
inhibition [24]: inactive
inhibition [26]: 100%
inhibition [27]: 100%
inhibition [28]: 100%
Structure (SMILES): CSCC[C@H](NC(=O)CNC(=O)[C@H](CCC(=O)O)NC(=O)[C@H](CO)NC(=O)[C@@H](NC(=O)[C@H](CCCCN)NC(=O)[C@H](CC(N)=O)NC(=O)[C@H](CS)NC(C)=O)[C@@H](C)O)C(=O)N[C@@H](CC(=O)O)C(=O)NCC(=O)N[C@@H](CS)C(=O)N[C@@H](CCC(=O)O)C(=O)N[C@@H](CC(C)C)C(N)=O (Ac-CNKTSEGMDGCEL-NH2)
Activity (Mus musculus [5]): Active
Activity (Mus musculus [8]): Active
Activity (Mus musculus [10]): Active
Activity (Mus musculus [11]): Active
Activity (Mus musculus [14]): Active
Activity (Mus musculus [19]): Active
Activity (Mus musculus [21]): Active
Activity (Mus musculus [25]): Active
